Among the test systems are KM12 colon; UACC-62 melanoma; CCRF-CEM leukemia; M14 melanoma; NCI-H460 lung; NCI/ADR-RES ovarian; NCI-H226 lung; SK-MEL-2 melanoma; OVCAR-4 ovarian; NCI-H522 lung.
Common to all, as to experiment: NCI-60 cell line screen, 48 h

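Interpolation was linear, between the two tested concentrations surrounding the appropriate level; five concentrations were tested over 48 hours in 96-well plates. GI50: concentration for 50% inhibition of growth. Definition used: TGI = concentration required for complete inhibition of growth.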

As to `CN(C)C=Nc1nncc2n[nH]nc12`, the TGI in the experiment with KM12 colon, in the experiment with UACC-62 melanoma, with CCRF-CEM leukemia, in the experiment with M14 melanoma, in the experiment on NCI-H460 lung and with NCI/ADR-RES ovarian was > 100 µM each time. The TGI with NCI-H226 lung and in the experiment on SK-MEL-2 melanoma was > 100 µM each time.
With `CCOC(=O)c1c(-c2ccc(OC)c(O)c2)c(C#N)c(=S)n(C2OC(CO)C(O)C(O)C2O)c1-c1ccccc1` (centres undefined), the TGI with KM12 colon, with OVCAR-4 ovarian, in the experiment with UACC-62 melanoma, with CCRF-CEM leukemia, with M14 melanoma and with NCI-H460 lung was > 100 µM throughout. The TGI in the experiment with NCI/ADR-RES ovarian and in the experiment with NCI-H226 lung was > 100 µM each time.
As to `Cc1nn(-c2ccccn2)c2c1C(SC#N)=C(C=O)CC2`, the TGI in the experiment with KM12 colon is 32.7 µM; with NCI-H522 lung, 46 µM; in the experiment on UACC-62 melanoma, 18.3 µM; with CCRF-CEM leukemia it was 6.43 µM; in the experiment with M14 melanoma, 31.7 µM; in the experiment with NCI-H460 lung, 34.9 µM. For the same compound, the TGI in the experiment on NCI/ADR-RES ovarian was 45.5 µM; with SK-MEL-2 melanoma it was 30.5 µM.
For `COc1ccc(N2C(=O)/C(=C/c3ccc(N(CCC#N)CCC#N)cc3)N=C2c2ccccc2)c(OC)c1`, the TGI in the experiment on KM12 colon was > 100 µM; with NCI-H522 lung, 74.1 µM; in the experiment on OVCAR-4 ovarian it was > 100 µM; in the experiment on UACC-62 melanoma it was > 100 µM; in the experiment on CCRF-CEM leukemia, 74.9 µM; in the experiment on M14 melanoma, > 100 µM. In addition, the TGI in the experiment with NCI-H460 lung, in the experiment on NCI/ADR-RES ovarian and in the experiment on NCI-H226 lung was > 100 µM in each case.
Take `O=C(Nc1nc(C23CC4CC(CC(C4)C2)C3)cs1)c1cc2cc([N+](=O)[O-])ccc2oc1=O`: the TGI in the experiment with KM12 colon was > 100 µM; in the experiment with NCI-H522 lung it was > 100 µM; in the experiment with OVCAR-4 ovarian, 44.8 µM; in the experiment on CCRF-CEM leukemia, > 100 µM; with NCI-H460 lung it was > 100 µM; in the experiment with NCI/ADR-RES ovarian, > 100 µM. The TGI in the experiment on NCI-H226 lung is > 100 µM.
In the case of `CSC1NNC2(C(=O)N1)c1ccccc1-c1ccccc12` (centres undefined), the TGI with KM12 colon, in the experiment with NCI-H522 lung, in the experiment on OVCAR-4 ovarian, with UACC-62 melanoma, in the experiment on CCRF-CEM leukemia and in the experiment on M14 melanoma was > 10 µM throughout. Also, the TGI in the experiment with NCI-H460 lung, with NCI/ADR-RES ovarian and in the experiment on NCI-H226 lung was > 10 µM each time.
Take `Cc1nnc(CC#N)n1NC(=O)CC#N`: the TGI in the experiment on KM12 colon, with NCI-H522 lung, in the experiment with UACC-62 melanoma, with CCRF-CEM leukemia, in the experiment on M14 melanoma and in the experiment with NCI-H460 lung was > 100 µM each time. Also, the TGI in the experiment with NCI/ADR-RES ovarian and in the experiment on SK-MEL-2 melanoma was > 100 µM throughout.
With `O=C(NCc1ccccc1)c1c(O)c2ccccc2[nH]c1=O`, the TGI in the experiment with KM12 colon, with NCI-H522 lung, with OVCAR-4 ovarian, in the experiment on CCRF-CEM leukemia, in the experiment on NCI-H460 lung and in the experiment on NCI/ADR-RES ovarian was > 100 µM each time. In the experiment with NCI-H226 lung, the TGI is > 100 µM.
Consider `O=c1c(-c2ccc(O)cc2)coc2cc(O)cc(O)c12`, for which the TGI in the experiment with KM12 colon, in the experiment with NCI-H522 lung, in the experiment with OVCAR-4 ovarian, in the experiment with UACC-62 melanoma, with M14 melanoma and in the experiment on NCI-H460 lung was > 100 µM in each case. Further, the TGI with NCI/ADR-RES ovarian and in the experiment with NCI-H226 lung was > 100 µM each time.
On to `CN(CCN(C)C(=O)CCn1ccc(=O)[nH]c1=O)C(=O)CCn1ccc(=O)[nH]c1=O`, for which the TGI in the experiment on KM12 colon, with NCI-H522 lung, with OVCAR-4 ovarian, in the experiment with UACC-62 melanoma, in the experiment with CCRF-CEM leukemia and in the experiment with M14 melanoma was > 100 µM each time. Moreover, the TGI in the experiment with NCI-H460 lung, in the experiment with NCI-H226 lung and in the experiment on SK-MEL-2 melanoma was > 100 µM in each case.
Regarding `Cc1ccc2cnc(N)c(C#Cc3cncc(C(=O)Nc4ccc(CN5CCN(C)CC5)c(C(F)(F)F)c4)c3)c2c1`, the GI50 with KM12 colon was 0.005 µM; in the experiment with NCI-H522 lung, 0.249 µM; with UACC-62 melanoma, 0.628 µM; in the experiment on CCRF-CEM leukemia, 0.197 µM; in the experiment with NCI-H460 lung it was 0.212 µM; in the experiment on NCI/ADR-RES ovarian, 0.746 µM. Besides, the GI50 in the experiment with SK-MEL-2 melanoma was 0.66 µM. Moreover, the TGI worked out at 0.538 µM in the experiment on KM12 colon; 1.02 µM with NCI-H522 lung; 1.35 µM with UACC-62 melanoma; 0.897 µM with CCRF-CEM leukemia; 0.819 µM in the experiment with NCI-H460 lung; 2.09 µM in the experiment with NCI/ADR-RES ovarian. Also, the TGI in the experiment on SK-MEL-2 melanoma is 1.63 µM.
Turning to `Cc1cccc(C(O)c2cccnc2)c1O` (centres undefined), the TGI in the experiment with KM12 colon, in the experiment on NCI-H522 lung, in the experiment on UACC-62 melanoma, in the experiment with CCRF-CEM leukemia, with NCI-H460 lung and in the experiment on NCI/ADR-RES ovarian was > 100 µM throughout. For the same compound, in the experiment with NCI-H226 lung, the TGI was > 100 µM.
As to `CC(=O)Nc1ccc(/C=C(\NC(=O)c2ccccc2)C(=O)NNS(=O)(=O)c2ccc(C)cc2)cc1`, the TGI in the experiment on KM12 colon, in the experiment on NCI-H522 lung, with OVCAR-4 ovarian, in the experiment with UACC-62 melanoma, in the experiment on CCRF-CEM leukemia and in the experiment with M14 melanoma was > 100 µM throughout. In addition, the TGI in the experiment on NCI-H460 lung, in the experiment with NCI-H226 lung and in the experiment with SK-MEL-2 melanoma was > 100 µM in each case.
In the case of `S=C(Nc1ccc2c(c1)Cc1ccccc1-2)Nc1ccc2c(c1)Cc1ccccc1-2`, the TGI with KM12 colon is > 100 µM; in the experiment with NCI-H522 lung, > 100 µM; in the experiment on OVCAR-4 ovarian it was > 100 µM; in the experiment on UACC-62 melanoma it was > 100 µM; in the experiment with CCRF-CEM leukemia, 27.2 µM; in the experiment on M14 melanoma it was > 100 µM. Moreover, the TGI in the experiment with NCI-H460 lung, in the experiment with NCI/ADR-RES ovarian and with NCI-H226 lung was > 100 µM in each case.
Regarding `C/C(=C\CNc1nc(Cl)nc2nc[nH]c12)CO`, the TGI in the experiment on KM12 colon, in the experiment on NCI-H522 lung, in the experiment on OVCAR-4 ovarian, with UACC-62 melanoma, in the experiment on CCRF-CEM leukemia and in the experiment with M14 melanoma was > 100 µM each time. Moreover, the TGI in the experiment with NCI-H460 lung, in the experiment with NCI/ADR-RES ovarian and in the experiment with NCI-H226 lung was > 100 µM throughout.

The record behind these values is PubChem BioAssay (NCI).
